Laboratory results from patent US9290476B2, “Methylene linked quinolinyl modulators of RORγt” (Janssen Pharmaceutica NV, priority 2012, dated 2016).
“And” between values parts separate entries of the source, which are not always exact repeats. Identical values can stand only once. Counter-ions that a name gives are not always drawn. Like-named read-outs stand apart in the source and are kept apart here.

What was measured:
[1] = target: human RORγt ligand binding domain (RORγt LBD) (Homo sapiens (Human), UniProt P51449); assay: RORγt ThermoFluor assay (thermal shift binding affinity); settings: estimated from thermal shift
Chain of human RORγt ligand binding domain (RORγt LBD) (P51449 other isoform, or with tags, fused parts or gaps): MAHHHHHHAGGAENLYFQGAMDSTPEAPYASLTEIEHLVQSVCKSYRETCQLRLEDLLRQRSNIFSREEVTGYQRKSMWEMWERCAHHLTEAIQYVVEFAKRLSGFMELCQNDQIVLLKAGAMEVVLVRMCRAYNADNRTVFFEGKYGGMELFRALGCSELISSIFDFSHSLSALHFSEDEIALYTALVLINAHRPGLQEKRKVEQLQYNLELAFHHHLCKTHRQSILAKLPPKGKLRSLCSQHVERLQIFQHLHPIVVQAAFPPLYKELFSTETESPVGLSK
Outline: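 Thermal shift used 0.065 mg/mL RORγt LBD with 60 μM 1,8-ANS in 100 mM Hepes pH 7.0, 10 mM NaCl, 2.5 mM GSH and 0.002% Tween-20, heated at 1 °C/min. Fluorescence was excited at 380–400 nm and emission read at 500 nm.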

human RORγt LBD = human RORγt LBD (Homo sapiens (Human), UniProt P51449); assay: RORγt reporter assay (GAL4-RORγt LBD luciferase in HEK293T cells); assay type: cell-based; settings: for IC50 / RORγt reporter Assay, % inhibition @ 6 μM: HEK293T cells; for IC50: 24 hours compound treatment; for inhibition at 6 µM: HEK-293T, read-out: RORγt reporter Assay, % inhibition @ 6 μM, HEK293T cells, 6 μM
Chain of human RORγt LBD (P51449 258-518): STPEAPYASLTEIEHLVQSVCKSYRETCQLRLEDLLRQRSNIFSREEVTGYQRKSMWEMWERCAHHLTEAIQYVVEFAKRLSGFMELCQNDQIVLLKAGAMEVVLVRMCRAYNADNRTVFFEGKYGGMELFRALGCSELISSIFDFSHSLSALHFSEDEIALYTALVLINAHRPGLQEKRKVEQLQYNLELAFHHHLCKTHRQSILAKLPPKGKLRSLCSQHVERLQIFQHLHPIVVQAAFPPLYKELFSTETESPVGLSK
Outline: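 HEK293T cells transiently co-transfected with GAL4-DBD–wild-type human RORγt LBD (pBIND) and GAL4-responsive firefly luciferase reporter (pGL4.31); renilla luciferase from pBIND normalises transfection/viability. Cells in phenol-red-free DMEM, 5% lipid-reduced FCS, treated with compound 24 h. Firefly/renilla ratio plotted against compound concentration.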

[2] = system: IL-17 production by CD4 T cells; assay: Human Th17 assay (IL-17 production by CD4 T cells under Th17 differentiation); assay type: cell-based; settings: human CD4+ T cells, IL-17 after 3 days, read-out: Human Th17 Assay, IC50 μM
Excerpt: The human Th17 assay tests the effect of RORγt modulatory compounds on IL-17 production by CD4 T cells under conditions which favor Th17 differentiation.
Total CD4^+ T cells were isolated from the peripheral blood mononuclear cells (PBMC) of healthy donors using a CD4^+ T cell isolation kit II, following the manufacturer's instructions (Miltenyi Biotec). Cells were resuspended in a medium of RPMI-1640 supplemented with 10% fetal bovine serum, penicillin, streptomycin, glutamate, and β-mercaptoethanol and were added to 96-well plates at 1.5×10^5 per 100 μL per well. 50 μL of compound at titrated concentrations in DMSO were added into each well at final DMSO concentration at 0.2%. Cells were incubated for 1 hour, then 50 μL of Th17 cell differentiation medium was added to each well. The final concentrations of antibodies and cytokines (R&D Systems) in differentiation medium were: 3×10^6/mL anti-CD3/CD28 beads (prepared using human T cell activation/expansion kit, Miltenyi Biotec), 10 μg/mL anti-IL4, 10 μg/mL anti-IFNγ, 10 ng/mL IL1β, 10 ng/mL IL23, 50 ng/mL IL6, 3 ng/mL TGFβ and 20 U/mL IL2. Cells were cultured at 37° C. and 5% CO2 for 3 days. Supernatants were collected and the accumulated IL-17 in culture was measured by using MULTI-SPOT® Cytokine Plate following manufacture's instruction (Meso Scale Discovery). The plate was read using Sector Imager 6000, and IL-17 concentration was extrapolated from the standard curve. The IC50s were determined by GraphPad.

| SMILES | Kd [1] [µM] | IC50 (human RORγt LBD) | inhibition at 6 µM (human RORγt LBD) [%] | IC50 ([2]; Homo sapiens, CD4+ T, 72 h) [µM] | RORγt reporter Assay, % inhibition @ 6 μM (human RORγt LBD) [%] | IC50 [2] [µM] |
| --- | --- | --- | --- | --- | --- | --- |
| COc1nc2c(C)cc(C(O)(c3ccc(Cl)cc3)c3cncn3C)cc2c(Cl)c1Cc1ccc(-n2cccn2)cc1 (stereo not shown) [Example 28A, (3-(4-(1H-Pyrazol-1-yl)benzyl)-4-chloro-2-methoxy-8-methylquinolin-6-yl)(4-chlorophenyl)(1-methyl-1H-imidazol-5-yl)methanol.TFA] | 0.053 | 0.18 µM | 100 | 0.2 | – | – |
| CS(=O)(=O)c1ccc(Cc2c(Cl)nc3ccc(C(O)(c4cccnc4)c4cccc(Cl)c4)cc3c2Cl)cc1 (stereo not shown) [Example 8, (3-Chlorophenyl)(2,4-dichloro-3-(4-(methylsulfonyl)benzyl)quinolin-6-yl)(pyridin-3-yl)methanol.TFA] | 0.043 | 0.068 µM | 103 | 0.079 | – | – |
| Cn1cncc1C(O)(c1ccc(C(F)(F)F)nc1)c1ccc2nc(Cl)c(Cc3ccc(-n4cccn4)cc3)c(Cl)c2c1 (stereo not shown) [Example 23, (3-(4-(1H-Pyrazol-1-yl)benzyl)-2,4-dichloroquinolin-6-yl)(1-methyl-1H-imidazol-5-yl)(6-(trifluoromethyl)pyridin-3-yl)methanol.TFA] | 0.004 | 0.014 µM | 95 | 0.15 | – | – |
| COc1nc2c(C)cc(C(O)(c3ccc(Cl)cc3)c3cncn3C)cc2c(Cl)c1Cc1ccc(-n2cccn2)cc1 (single isomer, unassigned) [Example 28C, (3-(4-(1H-pyrazol-1-yl)benzyl)-4-chloro-2-methoxy-8-methylquinolin-6-yl)(4-chlorophenyl)(1-methyl-1H-imidazol-5-yl)methanol] | 0.0058 | 0.087 µM | – | 0.066 | 97 | – |
| COc1nc2ccc(C(O)(c3ccc(Cl)cc3)c3cncn3C)cc2c(Cl)c1Cc1ccc(S(C)(=O)=O)cc1 (stereo not shown) [Example 31, (4-Chloro-2-methoxy-3-(4-(methylsulfonyl)benzyl)quinolin-6-yl)(4-chlorophenyl)(1-methyl-1H-imidazol-5-yl)methanol.TFA] | 0.064 | 0.19 µM | 103 | 0.28 | – | – |
| COc1ccc(C(O)(c2ccc3nc(OC)c(Cc4ccc(-n5cccn5)cc4)c(Cl)c3c2)c2cncs2)cn1 (single isomer, unassigned) [Example 20B, (3-(4-(1H-pyrazol-1-yl)benzyl)-4-chloro-2-methoxyquinolin-6-yl)(6-methoxypyridin-3-yl)(thiazol-5-yl)methanol] | 0.0014 | 0.047 µM | 100 | 0.039 | – | – |
| COc1nc2ccc(C(O)(c3ccc(C(F)(F)F)nc3)c3cncn3C)cc2c(Cl)c1Cc1cc2ccccc2s1 (stereo not shown) [Example 37A, (3-(Benzo[b]thiophen-2-ylmethyl)-4-chloro-2-methoxyquinolin-6-yl)(1-methyl-1H-imidazol-5-yl)(6-(trifluoromethyl)pyridin-3-yl)methanol.TFA] | 0.0078 | 0.028 µM | 100 | 0.12 | – | – |
| COc1nc2ccc(C(O)(c3ccccc3)C3CCN(C(C)=O)CC3)cc2c(Cl)c1Cc1ccc(-n2cccn2)cc1 (single isomer, unassigned) [Example 83B, 1-(4-((3-(4-(1H-Pyrazol-1-yl)benzyl)-4-chloro-2-methoxyquinolin-6-yl)(hydroxy)(phenyl)methyl)piperidin-1-yl)ethanone] | 0.0047 | 0.024 µM and ~0.07 µM | 100 | – | – | 0.016 |
| Cc1cc(C(O)(c2ccc(C#N)cc2)c2cncn2C)cc2c(C#N)c(Cc3ccc(-n4cccn4)cc3)c(C#N)nc12 (single isomer, unassigned) [Example 66B, 3-(4-(1H-pyrazol-1-yl)benzyl)-6-((4-cyanophenyl)(hydroxy)(1-methyl-1H-imidazol-5-yl)methyl)-8-methylquinoline-2,4-dicarbonitrile] | 0.27 | 0.42 µM | 95 | – | – | 1.1 |
| Cc1cc(C(O)(c2ccc(C#N)cc2)c2cncn2C)cc2c(C#N)c(Cc3ccc(-n4cccn4)cc3)c(C#N)nc12 (single isomer, unassigned) [Example 66C, 3-(4-(1H-pyrazol-1-yl)benzyl)-6-((4-cyanophenyl)(hydroxy)(1-methyl-1H-imidazol-5-yl)methyl)-8-methylquinoline-2,4-dicarbonitrile] | 0.0079 | 0.029 µM | – | – | 101 | 0.04 |
| CON(C)c1nc2ccc(C(O)(c3ccc(C(F)(F)F)nc3)c3cncn3C)cc2c(Cl)c1Cc1ccc(-n2cccn2)cc1 (single isomer, unassigned) [Example 67B, (3-(4-(1H-pyrazol-1-yl)benzyl)-4-chloro-2-(methoxy(methyl)amino)quinolin-6-yl)(1-methyl-1H-imidazol-5-yl)(6-(trifluoromethyl)pyridin-3-yl)methanol] | 0.0063 | 0.035 µM | 101 | – | – | 0.01 |
| OC(c1cccnc1)(c1ccc2nc(Cl)c(Cc3ccc(Cl)cc3)c(Cl)c2c1)c1cncs1 (stereo not shown) [Example 9, (2,4-Dichloro-3-(4-chlorobenzyl)quinolin-6-yl)(pyridin-3-yl)(thiazol-5-yl)methanol.TFA] | 0.00083 | 0.0065 µM | 85 | 0.085 | – | – |
| COc1nc2ccc(C(O)(c3ccc(C(F)(F)F)nc3)c3cncn3C)cc2c(Cl)c1Cc1cc2ccccc2s1 (single isomer, unassigned) [Example 37B, (3-(benzo[b]thiophen-2-ylmethyl)-4-chloro-2-methoxyquinolin-6-yl)(1-methyl-1H-imidazol-5-yl)(6-(trifluoromethyl)pyridin-3-yl)methanol] | 0.044 | 0.16 µM | 99 | 0.11 | – | – |
| Cn1cncc1C(O)(c1ccc2nc(Cl)c(Cc3ccc(-n4cccn4)cc3)c(Cl)c2c1)c1cncn1C [Example 30, (3-(4-(1H-Pyrazol-1-yl)benzyl)-2,4-dichloroquinolin-6-yl)bis(1-methyl-1H-imidazol-5-yl)methanol.TFA] | 0.0022 | 0.025 µM | 98 | 0.063 | – | – |
| COc1nc2c(C)cc(C(O)(c3ccc(C(F)(F)F)nc3)c3cncn3C)cc2c(Cl)c1Cc1ccc(-n2cccn2)cc1 (single isomer, unassigned) [Example 29B, (3-(4-(1H-pyrazol-1-yl)benzyl)-4-chloro-2-methoxy-8-methylquinolin-6-yl)(1-methyl-1H-imidazol-5-yl)(6-(trifluoromethyl)pyridin-3-yl)methanol] | 0.093 | 0.13 µM | 102 | – | – | 0.19 |
| OC(c1cccnc1)(c1cccc(Cl)c1)c1ccc2nc(Cl)c(Cc3cccs3)c(Cl)c2c1 (stereo not shown) [Example 32, (3-Chlorophenyl)(2,4-dichloro-3-(thiophen-2-ylmethyl)quinolin-6-yl)(pyridin-3-yl)methanol.TFA] | 0.033 | 0.11 µM | 103 | 1.8 | – | – |
| COc1ccc(C(O)(c2ccc3nc(OC)c(Cc4ccc(-n5cccn5)cc4)c(Cl)c3c2)c2cncn2C)cn1 (stereo not shown) [Example 22, (3-(4-(1H-Pyrazol-1-yl)benzyl)-4-chloro-2-methoxyquinolin-6-yl)(6-methoxypyridin-3-yl)(1-methyl-1H-imidazol-5-yl)methanol.TFA] | 0.0028 | 0.091 µM | 96 | 0.016 | – | – |
| COc1nc2ccc(C(O)(c3ccc(F)cc3)c3cncn3C)cc2c(Cl)c1Cc1ccc(S(C)(=O)=O)cc1 (single isomer, unassigned) [Example 54C, (4-chloro-2-methoxy-3-(4-(methylsulfonyl)benzyl)quinolin-6-yl)(4-fluorophenyl)(1-methyl-1H-imidazol-5-yl)methanol] | 0.023 | 0.098 µM | – | 0.057 | 93 | – |
| Cn1cncc1C(O)(c1ccc(Cl)cc1)c1ccc2nc(C#N)c(Cc3ccc(-n4cccn4)cc3)c(C#N)c2c1 (single isomer, unassigned) [Example 71C, 3-(4-(1H-Pyrazol-1-yl)benzyl)-6-((4-chlorophenyl)(hydroxy)(1-methyl-1H-imidazol-5-yl)methyl)quinoline-2,4-dicarbonitrile] | 0.13 | 0.26 µM | – | – | 103 | 0.3 |
